Measurements: ChEMBL document CHEMBL5727488, “3-indol substituted derivatives, pharmaceutical compositions and methods for use” (2020)

Target: Tryptophan 2,3-dioxygenase (Homo sapiens, UniProt P48775)
Test: Assay for TDO2 enzymatic activity determination: To measure the TDO2 activity, the procedure described in Dolusic et al. J. Med. Chem.; 2011, 54, […] was adapted: the reaction mixture contained (final concentrations) potassium phosphate buffer (50 mM, pH 7.5), ascorbic acid (0.25 M), methylene blue (0.125 μM), catalase (40 units/mL, from bovine liver, Sigma), and human recombinant TDO2 enzyme (prepared as described in Dolusic et al. J. Med. Chem.; 2011, 54, 5320-5334; 0.9 μg) without or with the compounds of the present invention at the indicated concentrations (total volume 112.5 μL). The reaction was initiated by the addition of 37.5 μL of L-Trp (final concentration 1 mM) at room temperature. The reaction was conducted at room temperature during one hour and stopped by the addition of 30 μL of 30% (w/v) trichloroacetic acid.To convert N-formylkynurenine into kynurenine, the reaction mixture was incubated at 65° C. for 30 min. Then 150 μL of the reaction mixture was mixed with 120 μL of 2.5% (w/v) 4-(dimethylamino)-benzaldehyde in acetic acid and incubated for 5 min at room temperature. Kynurenine concentrations were determined by measuring the absorbance at 480 nm. A standard curve was made with pure kynurenine. The TDO activity was measured as described above using ten serial concentrations of the compounds of the present invention. […]

Sequence of Tryptophan 2,3-dioxygenase (P48775 whole entry): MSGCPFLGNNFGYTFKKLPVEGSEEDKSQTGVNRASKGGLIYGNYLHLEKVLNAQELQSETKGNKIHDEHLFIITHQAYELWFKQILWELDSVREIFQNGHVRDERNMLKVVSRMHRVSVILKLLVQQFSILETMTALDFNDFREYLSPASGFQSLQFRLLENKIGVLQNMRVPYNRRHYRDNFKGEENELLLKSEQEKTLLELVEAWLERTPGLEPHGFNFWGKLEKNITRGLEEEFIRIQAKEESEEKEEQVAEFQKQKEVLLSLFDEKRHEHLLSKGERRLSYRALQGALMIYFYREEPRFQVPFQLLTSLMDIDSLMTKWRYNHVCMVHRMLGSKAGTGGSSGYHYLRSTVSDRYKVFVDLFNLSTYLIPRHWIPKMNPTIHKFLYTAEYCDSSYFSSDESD

For C[C@@H](CO)NS(=O)(=O)c1ccc(-c2c[nH]c3cc(F)ccc23)cc1, which IC50 is on record?
Its IC50 is 840 nM.
